“Also recorded” adds a separate entry of the source.
Tests used:
[1] = test system: Fmr1 knockout (KO) or Wild Type (WT) mice; test: Social approach (sniffing of a juvenile, Trial 1); type: in vivo, mouse; conditions: for social approach (sniffing bouts) / social approach, duration of sniffing: 2 months old; for social approach (sniffing bouts): Study 1; for social approach, duration of sniffing: Study 2; for duration of sniffing, Trial 1: 150 mg/kg ip 7 days
Method: (§1) Fmr1 knockout mice (KO2) mice (The Dutch-Belgium Fragile X Consortium, 1994), initially obtained from the Jackson Laboratory, and wild type (WT) littermates were generated on a C57BL/6J background and repeatedly backcrossed onto a C57BL/6J background for more than eight generations. The Fmr1 knockout mice were housed in groups of the same genotype in a temperature and humidity controlled room with a 12-h light-dark cycle (lights on from 7 am to 7 pm; testing was conducted during light phase). Room temperature and humidity were recorded continuously in the holding room while food and water were available ad libitum. Testing was conducted on healthy Fmr1 knockout mice and their wild type littermates (N=10 mice per treatment group) at 2 or 6 months of age during the behavioral experiments. Mice were housed in commercial plastic cages and experiments were conducted in line with the requirements of the UK Animals (Scientific Procedures) Act, 1986. All experiments were conducted with experimenters blind to genotype and drug treatment. Animals were allowed a minimum acclimatization period of one week prior to performing any experiment. No prophylactic or therapeutic treatment was administered during the acclimatization period.
(§2) In all cases, saline was used as a vehicle (control).
Mice are a social species that engage in easily scored social behaviors including approaching, following, sniffing, grooming, aggressive encounters, sexual interactions, parental behaviors, nesting, and sleeping in a group huddle. Social approach in mice was evaluated by sniffing duration directed to a novel mouse.
Mice were placed in a test arena/cage of the same order of magnitude in size as the adult's home cage (40×23×12 cm cage, with a Perspex lid to facilitate viewing the mice) with fresh wood chippings on the floor. A background mouse odor was created by putting in some non-experimental mice into the apparatus prior to testing. Mice were transferred to the experimental room 10-15 min prior to testing. A test subject and a juvenile were placed simultaneously into the test cage. The total duration and number of bouts of social investigation, defined as sniffing and close following (<2 cm from the tail) of the stimulus juvenile by the tested mouse, was assessed for 3 min. 30 min later, the test was repeated using the same stimulus juvenile. Data parameters collected were the total duration and total number of bouts of sniffing for the acquisition and recognition. A social memory ratio was derived, defined as trial 2/trial 1+2. Therefore, no memory (e.g. 20/(20+20)=0.5 and memory (e.g. 10/(20+10)=<0.5.
Multivariate analysis of variance was employed to assess group differences across data. Repeated measures ANOVA were performed for behavioral data. Statistically significant effects in each ANOVA were followed with post hoc comparisons, using the Newman-Keuls test (Study 1) or the Tukey test (Study 2). A p value of less than 0.05 was considered significant.

[2] = test system: Fmr1 knockout (KO) or Wild Type (WT) mice; test: Y-maze water maze left right discrimination; type: in vivo, mouse; conditions: 2 months old, 150 mg/kg once daily 7 days, Study 1
Method: as §1, §2
A clear Perspex Y-maze was filled with 2 cm of water at 20° C. […]

[3] = test system: primary hippocampal neurons from Fmr1 knockout mice; test: Dendritic filopodia density and maturation in vitro; type: cell-based, mouse; conditions: neurons from Fmr1 KO mice, 300 μM, five hours
Method: as §2
Hippocampal cell cultures were prepared from wild type and Fmr1 KO fetal mice at embryonic day of gestation 17.5 (E17.5). Mice were killed by cervical dislocation and dissociated hippocampal cells were plated in 15 mm multi well vessels (Falcon Primaria). After 5 d in vitro, green fluorescent protein (GFP) was transfected to facilitate monitoring dendritic spine morphogenesis after drug treatment (Ethell and Yamaguchi, 1999; Ethell et al., 2001, Henkemeyer et al., 2003). Dendritic spines were formed at around 16 days in vitro (DIV).
Filopodia density of GFP transfected neurons was quantified by performing Sholl analyses of stacked Zeiss confocal generated images (40× objective, stack of 20×0.2 μm). With Metamorph software, concentric equally spaced circles (every 20 μm) were drawn around the cell soma of each neuron and subsequently, the amount of filopodia was counted per circle. Averages of counts were compared with unpaired two-tailed Student's T-tests.
Spine maturity of GFP transfected neurons was analyzed with Metamorph software (Molecular Devices, Sunnyvale, Calif.). Two distal dendritic segments of 70 100 μm were chosen per neuron for spine morphometric analysis. For each spine, the length and the width were measured. The length was defined as the distance from the base to the tip of the protrusion; whereas width was defined as the maximum distance perpendicular to the long axis of the spine. Measurements were compared with unpaired two tailed Student's T-tests and ANOVA corrected for multiple comparisons.

[4] = test system: hippocampal slices from Fmr1 knockout or WT mice; test: De novo hippocampal protein synthesis in vitro (SUnSET); type: cell-based, mouse; conditions: hippocampal slices from Fmr1 KO mice, 300 μM
Method: as §2
Transverse hippocampal slices (400 μm) were obtained from 6-week-old Fmr1 knockout and WT mice. A protein synthesis assay was performed as previously described using the nonradioactive fluorescence-activated cell sorting-based assay, surface sensing of translation (SUnSET) method, which allows the monitoring and quantification of global protein synthesis in individual mammalian cells and in heterogeneous cell populations. (Hoeffer, 2011).

[5] = Fmr1 KO mice, 6 months old, 150 mg/kg ip once daily 7 days

## Cc1ncc(CO)c(CO)c1O.O=C1CC[C@@H](C(=O)O)N1 [metadoxine, pyridoxol L,2-pyrrolidon-5 carboxylate]
[1]; Fmr1 KO mice, 150 mg/kg ip once daily 7 days, 150 mg/kg
  social approach (sniffing bouts): increased social approach in Fmr1 knockout mice; also recorded: improved social interaction
[1]; Fmr1 KO mice, 150 mg/kg ip once daily 7 days
  social approach, duration of sniffing: reversal was complete
[1]; Fmr1 KO mice, 150 mg/kg oral once daily 7 days
  social approach, duration of sniffing: reversal was complete
[1]; Fmr1 KO mice, 300 mg/kg oral once daily 7 days
  social approach, duration of sniffing: reversal was complete
[1]; [5]
  social approach, duration of sniffing (Trial 1): this effect was partial
  social approach, number of sniffing bouts (Trial 1): did not differ from metadoxine-treated WT mice
[1]; KO-M: Fmr1 KO mice, 6 months old
  duration of sniffing, Trial 1: 28.4
[1]; WT mice, 150 mg/kg ip once daily 7 days
  social approach (sniffing bouts): no effect on WT mice
[1]; WT mice, any dose (150 mg/kg ip, 150 and 300 mg/kg oral)
  social approach, duration of sniffing: without effect on WT mice
[1]; WT mice, 6 months old, 150 mg/kg ip once daily 7 days
  social approach, sniffing bouts and duration (Trial 1): without effect on WT mice
[1]; WT-M: WT mice, 6 months old
  duration of sniffing, Trial 1: 38.5
[2]
  Y-maze water maze spatial discrimination (incorrect arm entries): deficit was reduced
[3]
  density of neuronal filopodia: reduced the aberrant increase in density of neuronal filopodia
  filopodia length: reversed this increase in filopodia length
  filopodia width: reversed the decrease in width
[4]
  basal de novo protein synthesis: reduced protein synthesis rates in Fmr1 knockout mouse hippocampi. This effect was partial

Reference: patent US9851354B2, “Methods of treating fragile X syndrome and related disorders” (Alcobra Ltd., priority 2013, dated 2017)
